PMC10415494, “Ga(III) pyridinecarboxylate complexes: potential analogues of the second generation of therapeutic Ga(III) complexes?” (Journal of Biological Inorganic Chemistry, 2023)

How the values were obtained:
[1] = system: HepG2 (human liver cancer cell line); experiment: MTT cell viability test; type: cell-based; conditions: after 48 h
Procedure: Prior to each experiment, cell viability was determined using an automated cell counter (Countess II FL, Thermo Fisher Scientific, USA). 50 μl of the HepG2 cell suspension was transferred into new tube and 12.5 μl of trypan blue was added. After one minute, 10 μl was taken from the prepared suspension to determine the number of viable cells in 1 ml. The automated cell counter determined the total number of viable cells and the percentage of viability. […] Cells (2 × 10^4/200 μl) were incubated in 96-well microtiter plates for 24 and 48 h in the presence of metal complexes, picolinic acid, and gallium(III) nitrate, at 37 °C in humified atmosphere with 5% CO2. The cells were centrifuged for 10 min at 2500 rpm and 20 °C, supernatant was removed and 180 μl of fresh serum-free medium was added. Then 10 μl of MTT solution with a concentration of 5 mg/ml was added and cells were incubated for next 2–3 h in the dark until a precipitate formed. After centrifugation and removal of supernatant 150 μl of DMSO was added to the cells to dissolve the precipitate. Absorbance at 540 nm was measured using a spectrophotometer.

HepG2 cells = system: HepG2 cells; set-up: method as in PMID 16827101; conditions: after 6 days of treatment; read-out: antiproliferative effect IC50; cited from earlier work
[2] = Complex stability in biological testing medium by time-dependent 1H NMR; type: physicochemical; conditions: 300 K, over 96 h
Procedure: Nuclear magnetic resonance (NMR) data were collected on a Varian VNMRS 600 spectrometer operating at 599.87 MHz for ^1H. The concentration of all samples was approximately 3 mg/0.6 mL of 1% DMSO-d6/D2O. For comparison, the spectra of pure acids were also measured, while the pH of the solution of acids was adjusted to the same value as the solution of the complexes. The chemical shifts were referenced to the TSP (3-(trimethylsilyl)propionic-2,2,3,3-d4 acid sodium salt) peak (^1H NMR 0.00 ppm). The NMR data were recorded at 300 K, with chemical shifts δ reported in parts per million and coupling constants J in Hertz. All data were analysed using MestReNova 12.0.0 (2017) software. The stability in 1% DMSO-d6/D2O was determined for all samples. […]

[3] = system: Pseudomonas aeruginosa (P. aeruginosa) CCM 1959; experiment: Antimicrobial activity, macrodilution method (growth by A590); type: cell-based
Procedure: (§1) The antimicrobial activities of gallium(III) complexes GaPic, GaDpic, GaChel, GaCldpic, free ligands (HPic, H2Dpic, H2Chel, H2Cldpic) and positive controls (cefoxitin (C), ampicillin (A) and piperacillin (P)) were evaluated by macrodilution method using G^+ bacteria (Firmicutes) Staphylococcus aureus (S. aureus) CCM 3953 (Czech Collection of Microorganisms), G^− bacteria (γ-proteobacteria) Escherichia coli (E. coli) CCM 3988, Pseudomonas aeruginosa (P. aeruginosa) CCM 1959 (Czech Collection of Microorganisms) and the yeast Candida parapsilosis (C. parapsilosis) ATCC 22019 (American type culture collection). Cultures of bacteria (in Mueller–Hinton broth, MHB) and yeasts (in Sabouraud’s growth medium, SB) were incubated under shaking (250 rpm) at 37 °C. The growth of bacteria and yeasts was evaluated by measuring the absorbance of the growing cultures (A590) until the cultures reached the stationary growth phase. The effects of gallium(III) complexes on the growth of filamentous fungi Rhizopus oryzae (R. oryzae) CCM F-8284, Alternaria alternata (A. alternata) CCM F-128 and Microsporum gypseum (M. gypseum) CCM F-8342 (Czech Collection of Microorganisms) were observed by macrodilution method on solidified potato-dextrose growth medium (PDA). During culturing, the diameters of growing fungal colonies were measured at regular intervals. Briefly, the antimicrobial activity (bacteria and yeasts) gallium(III) complexes/ ligands were added to the microbial culture at the beginning of the cultivation-to the lag phase. Pure gallium(III) complexes/ligands were dissolved in DMSO. The final concentration of DMSO never exceeded 1.0 vol. % neither in control nor treated samples. Concentration of gallium(III) complexes used in experimental work for evaluation of antimicrobial activity was used in the range of 0.05–2 mM, for the free ligands in the range of 0.5–2.0 mM in all experiments. […] The IC50 values were evaluated from toxicity curves. All the obtained results of antimicrobial activity were compared to the activity of Ga(NO3)3.

[4] = system: Staphylococcus aureus (S. aureus) CCM 3953; experiment: as above; type: cell-based
Procedure: as §1

[5] = system: Escherichia coli (E. coli) CCM 3988; experiment: as above; type: cell-based; conditions: Bacteria; MHB, 37 °C; DMSO max 1.0 vol. %; read-out: IC50 E. coli
Procedure: as §1

[6] = system: human dermal fibroblasts (HDF); experiment: in vitro
Procedure: (§2) Cell culture the cell lines A2058 (human metastatic melanoma), BLM (human metastatic melanoma), HCT116 (human colorectal carcinoma), HeLa (human cervical adenocarcinoma), Jurkat (human leukaemic T cell lymphoma). […] Cells were maintained in standard conditions with an atmosphere containing 5% CO2 at 37 °C.
(§3) The antiproliferative activity of Ga(III) complexes GaPic, GaDpic, GaChel, GaCldpic, free ligands (HPic, H2Dpic, H2Chel, H2Cldpic) and cisplatin (cisPt) were evaluated by colorimetric microculture MTS (3-(4,5-dimethylthiazol-2-yl)-5-(3-carboxymethoxyphenyl)-2-(4-sulfophenyl)-2H tetrazolium) assay (Promega, Madison, WI, USA). Cancer and non-cancer cells were seeded at density 5 × 10^3 cells/well in 96-well polystyrene microplates. Twenty-four hours after cell seeding, different concentrations (1.0—100.0 µM) of the compounds were tested. After 72 h of incubation, 10 µL of MTS was added to each well. After an additional 2 h, cell proliferation was evaluated by measuring of absorbance at wavelength 490 nm using the automated Cytation™ 3 Cell Imaging Multi-Mode Reader (Biotek, Winooski, VT, USA). The absorbance of control wells was taken as 100%, and the results were expressed as a percent of untreated control. IC50 values were calculated from MTS analyses.

[7] = system: Alternaria alternata (A. alternata) CCM F-128; experiment: Growth of filamentous fungi, macrodilution method on solidified PDA (colony diameter); type: cell-based; conditions: Filamentous fungi; solidified potato-dextrose growth medium; read-out: IC50 A. alternata
Procedure: as §1

[8] = system: Microsporum gypseum (M. gypseum) CCM F-8342; experiment: as above; type: cell-based; conditions: Filamentous fungi; solidified potato-dextrose growth medium; read-out: IC50 M. gypseum
Procedure: as §1

[9] = system: Rhizopus oryzae (R. oryzae) CCM F-8284; experiment: as above; type: cell-based; conditions: solidified potato-dextrose growth medium; read-out: IC50 R. oryzae
Procedure: as §1

[10] = system: Candida parapsilosis (C. parapsilosis) ATCC 22019; experiment: Antimicrobial activity, macrodilution method (yeast, growth by A590); type: cell-based; conditions: Yeast; Sabouraud's growth medium, 37 °C; read-out: IC50 C. parapsilosis
Procedure: as §1

[11] = molecular target: T1, bovine serum albumin (BSA) (Bos taurus, UniProt P02769); experiment: BSA fluorescence quenching (Stern-Volmer); type: binding; conditions: 0.01 M PBS buffer pH 7.4, 25 °C, λex = 280 nm
T1 construct: purchased Sigma-Aldrich Chemicals
T1 sequence (P02769 25-607): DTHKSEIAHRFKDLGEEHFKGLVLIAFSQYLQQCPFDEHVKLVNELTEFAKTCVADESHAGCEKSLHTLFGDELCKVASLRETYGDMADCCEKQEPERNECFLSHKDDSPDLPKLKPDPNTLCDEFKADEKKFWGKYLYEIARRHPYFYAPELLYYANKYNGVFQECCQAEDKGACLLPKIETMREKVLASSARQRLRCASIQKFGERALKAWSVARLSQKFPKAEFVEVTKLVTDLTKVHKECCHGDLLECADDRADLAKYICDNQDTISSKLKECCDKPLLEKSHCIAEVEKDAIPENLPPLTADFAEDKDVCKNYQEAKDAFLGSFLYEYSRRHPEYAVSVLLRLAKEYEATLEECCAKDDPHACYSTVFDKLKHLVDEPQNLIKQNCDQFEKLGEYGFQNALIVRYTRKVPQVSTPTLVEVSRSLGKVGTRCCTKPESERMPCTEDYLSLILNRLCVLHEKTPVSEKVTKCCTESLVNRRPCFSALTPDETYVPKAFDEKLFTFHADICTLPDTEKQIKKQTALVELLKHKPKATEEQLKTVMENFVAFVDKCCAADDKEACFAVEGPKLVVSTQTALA
Procedure: Fluorescence measurements were carried out on a Varian Cary Eclipse spectrofluorometer. The quenching studies of BSA with the Ga(III) complexes were investigated to determine whether they were able to quench fluorescence of BSA. All measurements were performed at 25 °C in 0.01 M PBS buffer (pH 7.4). The fluorescence spectra were measured at an excitation wavelength of 280 nm, with a slit width of 10 nm for the excitation and emission beams, in the range of 300–450 nm and analysed according to the classical Stern–Volmer Equation: F0/F=1+KSVQ where F0 and F are the fluorescence intensities in the absence and the presence of the quencher, respectively, KSV is the Stern–Volmer constant, and [Q] is the concentration of quencher.

[12] = system: Jurkat (human leukaemic T cell lymphoma); experiment: MTS antiproliferative assay
Procedure: as §2, §3

[13] = system: PaTu 8902 (human pancreatic adenocarcinoma); experiment: MTS antiproliferative assay
Procedure: as §2, §3

[14] = system: MDA-MB-231 (human mammary gland adenocarcinoma); experiment: MTS antiproliferative assay
Procedure: as §2, §3

[15] = system: HCT116 (human colorectal carcinoma); experiment: MTS antiproliferative assay
Procedure: as §2, §3

[16] = system: A2058 (human metastatic melanoma); experiment: MTS antiproliferative assay
Procedure: as §2, §3

[17] = system: HeLa (human cervical adenocarcinoma); experiment: MTS antiproliferative assay
Procedure: as §2, §3

Which “decrease in cell viability of HepG2” value ([1]; 75 μM) does the source give for O=C([O-])c1ccccn1.[Ag+] [AgPic] here?
Its value is 45%.

What about the “decrease in cell viability of HepG2” value ([1]; 100 μM) of the same compound?
Its value is 40%.

Which IC50 (HepG2 cells) does the source give for Cc1occc(=O)c1[O-].Cc1occc(=O)c1[O-].Cc1occc(=O)c1[O-].[Ga+3] [GaM, Ga(III) maltolate] here?
The IC50 was 25 to 35 µM.

What does the source list for O.O=C([O-])c1ccccn1.O=C([O-])c1ccccn1.O=C([O-])c1ccccn1.[Ga+3] [GaPic, [Ga(Pic)3]·H2O]?
decrease in cell viability of HepG2 ([1]; 100 μM): 28%; stability in 1% DMSO-d6/D2O solution [2]: does not decompose; IC50 ([3]; Bacteria, MHB, 37 °C, DMSO max 1.0 vol. %, read-out: IC50 P. aeruginosa): 50 µM; MIC100 (MIC) P. aeruginosa ([3]; growth fully inhibited (100%)): 500 µM; IC50 ([4]; Bacteria, MHB, 37 °C, DMSO max 1.0 vol. %, read-out: IC50 S. aureus): 2000 µM; inhibition of S. aureus growth ([4]; complex at 2 mM): 50%; IC50 [5]: > 2000 µM; IC50 [6]: 231 ± 23.8 µM; IC50 [7]: > 2000 µM; IC50 [8]: > 2000 µM; IC50 [9]: > 2000 µM; IC50 [10]: > 2000 µM; Stern–Volmer binding constant Ksv BSA [11]: 46700 M⁻¹; IC50 [12]: 175 ± 47.7 µM; IC50 [13]: 271 ± 34.3 µM; IC50 [14]: 152 ± 74.3 µM; IC50 [15]: 995 ± 27.5 µM; IC50 [16]: 187 ± 12.2 µM; IC50 [17]: 1530 ± 108 µM
